Laboratory results published in ChEMBL document CHEMBL3102797, “Kelsoenethiol and dikelsoenyl ether, two unique kelsoane-type sesquiterpenes, from the Formosan soft coral Nephthea erecta” (2014).
Converted amounts (≈) assume the structure as drawn.

Experiments:
Assay type in all cases: functional
Conditions in all cases: read-out: ED50 (the source's name)
[1] = test system: HT-29; assay: Cytotoxicity against human HT-29 cells
[2] = test system: P388; assay: Cytotoxicity against mouse P388 cells
[3] = test system: A549; assay: Cytotoxicity against human A549 cells

Row | SMILES | EC50 [1] [µg/mL] | EC50 [2] [µg/mL] | EC50 [3] [µg/mL]
1 | C/C(CS)=C1\[C@@H]2[C@H](C)CC[C@@H]2[C@@]2(C)CC[C@@H]12 (relative stereo) | 1.8 (≈ 7.61 µM) | 1.3 (≈ 5.5 µM) | 
2 | CO[C@H](C(=O)[C@@H](O)[C@@H](C)O)[C@@H]1Cc2cc3cc(O[C@H]4C[C@@H](O[C@@H]5C[C@@H](O)[C@H](O)[C@@H](C)O5)[C@H](O)[C@@H](C)O4)c(C)c(O)c3c(O)c2C(=O)[C@H]1O[C@H]1C[C@@H](O[C@@H]2C[C@@H](O)[C@@H](O[C@@H]3C[C@](C)(O)[C@H](O)[C@@H](C)O3)[C@@H](C)O2)[C@H](O)[C@@H](C)O1 [PLICAMYCIN] | 0.08 (≈ 0.0737 µM) | 0.06 (≈ 0.0553 µM) | 0.07 (≈ 0.0645 µM)
3 | C=C(C)[C@H]1[C@@H]2[C@H](C)CC[C@@H]2[C@@]2(C)CC[C@@H]12 | 3.2 (≈ 15.7 µM) | 2.8 (≈ 13.7 µM) | 
